Data set [1] deals with T1, human 11β-HSD1 (Homo sapiens, UniProt P28845).
T1 construct: The assay uses human liver microsomes (HLM), where the enzyme is expressed; tissue Celsis In-vitro Technologies; host or cells: mixed sex human liver microsomes
More on the design: method as in PMID 21471376, PMID 26306982. The following applies: previous inhibitors of the group; read-out: hHSD1 IC50; cited from earlier work.

Data set [2] concerns the target T2, human 11β-HSD2 (Homo sapiens, UniProt P80365).
T2 construct: stably transfected with the full-length gene coding for human 11β-HSD2; expressed in transfected cells; host or cells: HEK293
T2 sequence (P80365 1-405): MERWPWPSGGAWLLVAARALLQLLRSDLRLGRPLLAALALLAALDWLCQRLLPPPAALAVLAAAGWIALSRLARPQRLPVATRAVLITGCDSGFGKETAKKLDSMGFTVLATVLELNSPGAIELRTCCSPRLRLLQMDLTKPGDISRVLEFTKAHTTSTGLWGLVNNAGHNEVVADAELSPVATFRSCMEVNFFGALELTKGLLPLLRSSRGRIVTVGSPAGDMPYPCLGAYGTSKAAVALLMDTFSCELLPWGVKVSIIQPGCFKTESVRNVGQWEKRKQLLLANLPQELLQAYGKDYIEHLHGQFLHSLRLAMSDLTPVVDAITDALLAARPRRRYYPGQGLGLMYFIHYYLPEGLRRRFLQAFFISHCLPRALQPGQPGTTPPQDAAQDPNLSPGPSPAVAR
The settings on record: cited from earlier work; for IC50: read-out: HEK hHSD2 IC50.

Details of data set [3]: method as in PMID 21471376, PMID 26306982. The settings on record: remaining compound after 30-min incubation in human liver microsomes; cited from earlier work.
The subject of a further data set is mHSD1. More on the design: method as in PMID 21471376, PMID 26306982. The settings on record: murine enzyme; cited from earlier work.
Details of data set [4]: method as in PMID 21471376, PMID 26306982. The following applies: remaining compound in mouse liver microsomes; cited from earlier work.
For data set [5], the system named is Senescence-Accelerated Mouse Prone 8 (SAMP8). More on the design: method as in PMID 28818766. The settings on record: 12-month-old SAMP8 mice, four weeks; cited from earlier work.
In data set [6] the target is T1, human 11β-HSD1. The data set can be described thus: 11β-HSD1 enzyme inhibition assay in human liver microsomes (3H-cortisone to 3H-cortisol, SPA). The following applies: human liver microsomes; for inhibition at 10 µM: relative to no inhibitor control, read-out: hHSD1 % inh at 10 µM; for IC50: read-out: hHSD1 IC50. Type of data set: biochemical. How it is done: A preliminary screen was performed using a human microsome assay with compounds at 10 µM in order to assess their potential inhibition of the target enzyme (Table 2). Percentage of inhibition was determined by measuring the conversion of ^3H-cortisone to ^3H-cortisol by capturing liberated ^3H-cortisol on anti-cortisol (HyTest Ltd., Turku, Finland)-coated scintillation proximity assay beads. The assay uses human liver microsomes (HLM), where the enzyme is expressed, and NADPH as the cofactor needed by the enzyme. Eight of the thirteen new compounds presented 100% inhibition of the human 11β-HSD1 in this single concentration assay, so dose-response curves were performed to get their IC50 values.
11β-HSD1 activity was determined in mixed sex, human liver microsomes (HLM, Celsis In-vitro Technologies) by measuring the conversion of ^3H-cortisone to ^3H-cortisol. Percentage inhibition was determined relative to a no inhibitor control. An amount of 5 μg of HLM were pre-incubated at 37 °C for 15 min with inhibitor and 1 mM NADPH in a final volume of 90 μL Krebs buffer. 10 μL of 200 nM ^3H-cortisone was then added followed by incubation at 37 °C for a further 30 min. The assay was terminated by rapid freezing on dry ice and ^3H-cortisone to ^3H-cortisol conversion determined in 50 μL of the defrosted reaction by capturing liberated ^3H-cortisol on anti-cortisol (HyTest Ltd)-coated scintillation proximity assay beads (protein A-coated YSi, GE Healthcare). Reported values are the average of 1–3 measurements. A nanomolar 11β-HSD1 inhibitor, UE2316, was added as a positive control within in each set of assays.

Data set [7] deals with T1, human 11β-HSD1. Description: Cellular 11β-HSD1 enzyme inhibition assay (HEK293 stably transfected, cortisol by LC/MS). The settings on record: for HEK hHSD1 % inh at 10 µM: HEK293 transfected with human 11β-HSD1; for inhibition at 10 µM: HEK293 transfected with human 11β-HSD1, read-out: HEK hHSD1 % inh at 10 µM. In kind it is cell-based. As to the method: Those compounds with submicromolar IC50 values (4, 6, 8, 9 and 16) were further evaluated in terms of cellular potency, selectivity over 11β-HSD2, and metabolic stability as follows (Table 2, 5th, 6th, and 7th column, respectively). Cellular potency was assessed using Human Embryonic Kidney 293 (HEK293) cells stably transfected with the 11β-HSD1 gene. Cells were incubated with substrate (cortisone) and percentage of inhibition was determined by measuring the conversion of cortisone to cortisol by LC/MS. The results were in line with the previous results obtained in the microsomal assay.
The cellular 11β-HSD1 enzyme inhibition assay was performed using HEK293 cells stably transfected with the human 11β-HSD1 gene. Cells were incubated with substrate (cortisone) and product (cortisol) was determined by LC/MS. Cells were plated at 2 × 10^4 cells/well in a 96-well poly-D-lysine coated tissue culture microplate (Greiner Bio-one, Monroe, NC, USA) and incubated overnight at 37 °C in 5% CO2 […]. Compounds to be tested were solubilized in 100% dimethylsulfoxide (DMSO) at 10 mM and serially diluted in water and 10% DMSO to final concentration of 10 µM in 10% DMSO. Then 10 µL of each test dilution and 10 µL of 10% DMSO (for low and high control) were dispensed into the well of a new 96-well microplate (Greiner Bio-one). Medium was removed from the cell assay plate and 100 µL of Dulbecco’s Modified Eagle’s Medium DMEM solution (containing 1% penicillin, 1% streptomycin and 300 nM cortisone) added to each well. Cells were incubated for 2 h at 37 °C in 5% CO2 […]. Following incubation, medium was removed from each well into an Eppendorf containing 500 µL of ethyl acetate, mixed by vortex and incubated at r.t. for 5 min. A calibration curve of known concentrations of cortisol in assay medium was also set up and added to 500 µL of ethyl acetate, vortexed and incubated as above. The supernatant of each Eppendorf was removed to a 96-deep-well plate and dried down under […] at 65 °C. Each well was solubilized in 100 µL 70:30 H2O:acetonitrile (ACN) and removed to a 96-well V-bottomed plate for LC/MS analysis. Separation was carried out on a Sunfire 150 × 2.1 mm, […] column using a H2O:ACN gradient profile. Typical retention times were 2.71 min for cortisol and 2.80 min for cortisone. The peak area was calculated and the concentration of each compound determined from the calibration curve. Reported values are the average of 1–3 measurements.

In data set [8] the target is T2, human 11β-HSD2. Description: Cellular 11β-HSD2 enzyme inhibition assay (HEK293 stably transfected). Type of data set: cell-based. The following applies: for inhibition at 10 µM: HEK293, 10 µM, read-out: HEK hHSD2 % inh at 10 µM. As to the method: (§1) Selectivity over 11β-HSD2 was also assessed in a cell-based assay using the same methodology as before (HEK293 stably transfected with the 11β-HSD2 gene). […] Finally, metabolic stability was determined using HLM, which are widely used to predict the degree of primary metabolic clearance in the liver. Each compound was incubated over 30 min with HLM and the percentage of remaining compound after this incubation period was determined by calculating compound concentration after and before by LC/MS.
For measurement of inhibition of 11β-HSD2, HEK293 cells stably transfected with the full-length gene coding for human 11β-HSD2 were used. The protocol was the same as for the cellular 11β-HSD1 enzyme inhibition assay, only changing the substrate, this time cortisol, and the concentrations of the tested compounds, 10, 1, and 0.1 µM. Reported values are the average of 1–3 measurements.

A short description of data set [9]: Microsomal stability assay in human liver microsomes. In kind it is in vitro ADME. The settings on record: remaining compound after 30-min incubation in HLM. As to the method: as §1
The microsomal stability of each compound was determined using human liver microsomes (HLM, Celsis In-vitro Technologies, Baltimore, MD, USA). Microsomes were thawed and diluted to a concentration of 2 mg/mL in 50 mM sodium phosphate buffer pH 7.4. Each compound was diluted in 4 mM NADPH (made in the phosphate buffer above) to a concentration of 10 µM. Two identical incubation plates were prepared to act as a 0 min and a 30 min time point assay. 30 µL of each compound dilution was added in duplicate to the wells of a U-bottom 96-well plate and warmed at 37 °C for approximately 5 min. Verapamil, lidocaine, and propranolol at 10 µM concentration were utilized as reference compounds in this experiment. Microsomes were also pre-warmed at 37 °C before the addition of 30 µL to each well of the plate resulting in a final concentration of 1 mg/mL. The reaction was terminated at the appropriate time point (0 or 30 min) by addition of 60 µL of ice-cold 0.3 M trichloroacetic acid (TCA) per well. The plates were centrifuged for 10 min at 112× g and the supernatant fraction transferred to a fresh U-bottom 96-well plate. Plates were sealed and frozen at −20 °C prior to MS analysis. LC-MS/MS was used to quantify the peak area response of each compound before and after incubation with HLM using MS tune settings established and validated for each compound. These peak intensity measurements were used to calculate the percentage remaining after incubation with HLM for each hit compound. Reported values are the average of 1–3 measurements.

The mark [10] stands for this setting: HEK293 transfected with human 11β-HSD2.
Where [11] appears, read: 10 µM, HEK293 transfected with human 11β-HSD2.

Here are results for five compounds from publication PMC6017749, “Exploring N-acyl-4-azatetracyclo[5.3.2.0^2,6.0^8,10]dodec-11-enes as 11β-HSD1 Inhibitors” (Molecules : A Journal of Synthetic Chemistry and Natural …, 2018).

Like-named read-outs stand apart in the source and are kept apart here.

T1 sequence (P28845 whole entry): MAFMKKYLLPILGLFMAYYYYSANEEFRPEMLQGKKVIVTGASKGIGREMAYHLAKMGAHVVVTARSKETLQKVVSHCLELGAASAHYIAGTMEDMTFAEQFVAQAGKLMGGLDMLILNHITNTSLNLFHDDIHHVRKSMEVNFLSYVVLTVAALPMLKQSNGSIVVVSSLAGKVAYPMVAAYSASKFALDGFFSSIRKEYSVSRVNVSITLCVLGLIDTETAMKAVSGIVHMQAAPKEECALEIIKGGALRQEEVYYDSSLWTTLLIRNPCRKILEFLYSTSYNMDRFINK

For `O=C(C1CCCCC1)N1CC2C3CCC(C4CC34)C2C1` (stereo not shown) [Compound 3], the IC50 on human 11β-HSD1 [1] was 29 nM; on human 11β-HSD2 [2] (setting [10]) it was 100 to 1000 nM; with mHSD1, 81 nM. The “HLM % Parent” value in data set [3] is recorded as 94%. Besides, the “MLM % Parent” value in [4] is listed as 93%. Also, the “effect on memory deficits” value in data set [5] was “prevented memory deficits”. In addition, the neuroprotective action entry in data set [5] is “displayed a neuroprotective action through reduction of neuroinflammation and oxidative stress”.
On to `O=C(NC1C2CC3CC(C2)CC1C3)C1CCCCC1` (stereo not shown) [Compound 1], for which, on human 11β-HSD2 [2] (setting [11]), the “HEK hHSD2 % inh 10 µM” value was 88%. Further, in [3], the “HLM % Parent” value is reported as 74%.
With `N#Cc1ccc(N2CCN(c3ccc(C(=O)N4CC5C6C=CC(C7CC67)C5C4)cn3)CC2)cc1` (stereo not shown) [Compound 16, 4-[[4-[5-(4-Azatetracyclo[5.3.2. 0^2,6.0^8,10]dodec-11-en-4-yl)carbonyl]pyridin-2-yl]piperazin-1-yl]benzonitrile], the melting point fell in the range of 160 to 161 °C. Moreover, on human 11β-HSD1 [6], the inhibition at 10 µM was 100% and the IC50 is 377 nM. On human 11β-HSD1 [7], the “HEK hHSD1 % inh at 10 µM” value is “complete inhibition” and the inhibition at 10 µM was determined as 100%. For the same compound, on human 11β-HSD2 [8] (setting [11]), the “HEK hHSD2 % inh at 10 µM” value came out at 53%. The “selectivity index over 11β-HSD2” value on human 11β-HSD2 [8] (11β-HSD2 IC50 versus 11β-HSD1 IC50) was 30 fold. Also, at human 11β-HSD2 [8] (setting [10]), the inhibition at 10 µM worked out at 54%. Moreover, the IC50 at human 11β-HSD2 [8] (inferred from 54% inhibition at 10 µM in HEK293 cells, read-out: IC50 against 11β-HSD2) is roughly 10000 nM. Further, the “HLM % Parent” value in data set [9] was 13%.
`O=C(C1CC=CCC1)N1CC2C3C=CC(C4CC34)C2C1` (stereo not shown) [Compound 9, (4-Azatetracyclo[5.3.2. 0^2,6.0^8,10]dodec-11-en-4-yl)(cyclohex-3-en-1-yl)methanone]: the melting point lay within 78 to 79 °C. For the same compound, on human 11β-HSD1 [6], the inhibition at 10 µM turned out to be 100% and the IC50 was 56 nM. Further, on human 11β-HSD1 [7], the “HEK hHSD1 % inh at 10 µM” value is recorded as “complete inhibition” and the inhibition at 10 µM was 100%. On human 11β-HSD2 [8] (setting [10]), the inhibition at 10 µM stood at 87%. In addition, the “HLM % Parent” value in data set [9] is given as 44%.
In the case of `O=C(C1CCCCC1)N1CC2C3C=CC(C4CC34)C2C1` (stereo not shown) [Compound 2], the inhibition at 10 µM was 100% at human 11β-HSD1 [6], 100% on human 11β-HSD1 [7] and 69% at human 11β-HSD2 [8] (setting [10]). Further, the IC50 on human 11β-HSD1 [6] is 19 nM; on human 11β-HSD2 [2] (setting [10]) it was 1000 to 10000 nM. Moreover, the “HLM % Parent” value in [9] and in data set [3] was 27% in each case. In addition, at human 11β-HSD2 [2] (11β-HSD2 versus 11β-HSD1), the “selectivity index against 11β-HSD2 isoform” value was “at least 50 fold”.
